# Article PMC10970924 (Life, 2024)
# Where “and” joins values, the source holds several entries; their conditions need not be identical. Equal entries are not always repeated.
# Columns and labels:
# [1] = system: HCT-116; assay: Mitochondrial membrane potential, rhodamine 123 flow cytometry; format: cell-based, human; conditions: tumor cells (HCT-116 in Figure 4a), 72 h, IC50 or higher
# Experimental: (§1) Cells were seeded in a 12-well plate at a density of 1 × 10^5 cells/well and incubated for 24 h at 37 °C in a humid atmosphere with 5% CO2 prior to treatment. Cells were bathed in complete DMEM media containing the respective compounds, using a solvent (dH2O/DMSO) as a negative control. After 72 h, the nutrient medium over cells containing the floating cells was collected into tubes, and then the adherent cells were trypsinized and added to the fraction of floating cells. Cell suspensions were then centrifuged, and the pellet was suspended in phosphate-buffered saline (PBS) to a final density of 5 × 10^5 cells/mL. Cell suspension in a volume of 250 μL and 500 nM rhodamine 123 were added to a rounded-well plate, followed by incubation for 30 min at 25° C. Measurements were conducted using flow cytometry on the Millipore Guava EasyCyte HT Flow Cytometer System in a green fluorescent channel.
# [2] = system: MCF-7 cells; assay: Comet assay; format: cell-based, human; design: Tail Length: unit not given here; conditions: for Olive Moment / Tail Area / Tail DNA % / Tail Intensity / Tail Length / Tail Moment: 3 days
# [3] = system: C2C12; assay: Colony formation assay; format: cell-based, mouse; conditions: Mus musculus, C2C12, 72 h, incubation three days, read-out: Inhibitory concentration IC50, C2C12
# Experimental: (§2) Cells were cultured in a 24-well plate with 1 mL of DMEM nutrient medium for 24 h. […] The experiment was conducted in triplicate and in two or three independent repetitions. Only solvent was added to the control wells instead of the test compounds. Incubation with the drugs continued for three days, after which the grown colonies were washed with cold PBS solution and fixed in a fixing buffer (10% acetic acid, 10% methanol in distilled water) for 15 min. The colonies were stained with a 0.4% solution of crystal violet in 20% ethanol for 30 min and then washed 3 times with dH2O and analyzed under a microscope. The colonies were then dissolved in 10% acetic acid for 40 min on a shaker, and the absorbance of the lysate was read at 590 nm. Results were expressed as a percentage relative to the control, and a dose–response curve was plotted to determine the IC50 value.
# [4] = Colony formation assay; format: cell-based, mouse; conditions: mouse, C2C12 cells, 100 μM, read-out: C2C12 cells remaining viable
# Experimental: as §2
# [5] = system: MCF-7 cells; assay: Apoptosis induction, Annexin V-FITC/DAPI flow cytometry; format: cell-based, human
# Experimental: MCF-7 cells were seeded at a concentration of 15,000 cells/mL in a 6-well plate. Then, 24 h later the cells were treated with different concentrations of DOX-2 for 72 h. The nutrient medium over cells containing the floating cells was collected into tubes, and then the adherent cells were trypsinized and added to the fraction of floating cells. Then, cells were washed, placed in a binding buffer, stained with Annexin V-FITC/DAPI, and analyzed using the flow cytofluorimeter BD FACSCalibur™ (BD Biosciences, Franklin Lakes, NJ, USA). A total of 1% Triton X-100 was used as a control apoptosis inducer.
# [6] = system: SF-539; assay: Proliferation by impedance biosensor (RTCA DP Analyzer); format: cell-based; conditions: Homo sapiens, SF-539, 72 h, incubation three days, read-out: IC50 inhibitory concentration, SF-539
# Experimental: (§3) The effect of the test compounds on the proliferation of multiple cell lines was assessed in real time using the RTCA DP Analyzer (Roche, Basel, Switzerland). For this purpose, we used specialized E-plates containing wells similar in size to a standard 96-well plate, but their bottoms were covered with microelectrodes to assess impedance. When cells adhere to the microelectrodes, the impedance of the well changes, which allows us to calculate the cell index proportional to the cell number. In the experiment, cells were seeded in the E-plate at densities of 20,000 cells per milliliter (180 μL/well). At 24 h post-cell attachment, 20 μL of compounds at various test concentrations or solvent as a control were introduced, and cells were then cultured with real-time impedance registration for 5 days.
# [7] = system: PC-3; assay: as above; format: cell-based; conditions: Homo sapiens, PC-3, 72 h, incubation three days, read-out: IC50 inhibitory concentration, PC-3
# Experimental: as §3
# [8] = system: MCF-7; assay: as above; format: cell-based; conditions: Homo sapiens, MCF7, 72 h, incubation three days, read-out: IC50 inhibitory concentration, MCF-7
# [9] = system: MCF-7; assay: as above; format: cell-based, human; conditions: test concentration selected from biosensor data
# Experimental: as §3
# [10] = MTS cytotoxicity assay, statements over the cell panel; format: cell-based; conditions: human, tumor and conditionally normal cells; MTS dose–response curves, high concentrations; read-out: Viable cells remaining
# Experimental: The cytotoxicity of the compounds under study was assessed using MTS assay on cell cultures. Cells were seeded into 96-well plates at a concentration of 10,000–20,000 cells/mL. After 24 h, gradient concentrations of the compounds were added to the culture medium and the plates were incubated for 72 h. Subsequently, the culture medium was replaced with MTS reagents (Sigma-Aldrich, Burlington, MA, USA) (MTS:PMS (0.18:0.0092 mg/mL)) and dissolved in phenol-free RPMI 1640 medium. After 2 h of incubation, the resulting water-soluble formazan was measured using the TECAN Infinite M200 Pro microplate reader at wavelengths of 555/750 nm. As a control, equivalent volumes of the solvents in which each compound was dissolved (dH2O/DMSO) were used. To calculate the percentage of viable cells relative to the control, which was considered 100%, dose-response curves were plotted against the logarithm of the compound concentration. The concentration of the compound at which cell growth is inhibited by 50% relative to the control was taken as the inhibitory concentration IC50 and calculated using Origin Pro software 8.0.1. The study was conducted in triplicates and in three independent repetitions.
# [11] = system: MCF-7; assay: Mitochondrial membrane potential, rhodamine 123 flow cytometry; format: cell-based, human; conditions: MCF-7, 72 h, concentration corresponding to IC60
# Experimental: as §1
# [12] = system: HCT-15; assay: Colony formation assay; format: cell-based; conditions: Homo sapiens, HCT-15, 72 h, incubation three days, read-out: Inhibitory concentration IC50, HCT-15
# Experimental: as §2
# [13] = system: HSF; assay: Colony formation assay; format: cell-based; conditions: Homo sapiens, 72 h, incubation three days, read-out: Inhibitory concentration IC50, HSF
# Experimental: as §2
# [14] = system: MDA-MB-231; assay: Colony formation assay; format: cell-based; conditions: Homo sapiens, MDA-MB-231, 72 h, incubation three days, read-out: Inhibitory concentration IC50, MDA-MB-231
# Experimental: as §2
# [15] = system: SNB-19; assay: Colony formation assay; format: cell-based; conditions: Homo sapiens, SNB-19, 72 h, incubation three days, read-out: Inhibitory concentration IC50, SNB-19
# Experimental: as §2
# [16] = system: NCI-H322M; assay: Colony formation assay; format: cell-based; conditions: Homo sapiens, 72 h, incubation three days, read-out: Inhibitory concentration IC50, NCI-H322M
# Experimental: as §2
smiles,measurement,setting,value
"COc1cccc2c1C(=O)c1c(O)c3c(c(O)c1C2=O)CC(O)(C(=O)CO)CC3OC1CC(NC(=O)c2cnc(C)c3c2COC(C)(C)O3)C(O)C(C)O1 (centres unmarked) [DOX-1, N-(3-hydroxy-2-methyl-6-((3,5,12-trihydroxy-3-(2-hydroxyacetyl)-10-methoxy-6,11-dioxo-1,2,3,4,6,11-hexahydrotetracen-1-yl)oxy)tetrahydro-2H-pyran-4-yl)-2,2,8-trimethyl-4H-[1,3]dioxino[4,5-c]pyridine-5-carboxamide]",Effect on mitochondrial potential ΔΨ (in words),[1],significant number of cells with reduced mitochondrial potential
"COc1cccc2c1C(=O)c1c(O)c3c(c(O)c1C2=O)C[C@@](O)(C(=O)CO)C[C@@H]3O[C@H]1C[C@H](N)[C@H](O)[C@H](C)O1 [DOX, Doxorubicin, reference compound]",Effect on mitochondrial potential ΔΨ (in words),[1],significant number of cells with reduced mitochondrial potential
"COc1cccc2c1C(=O)c1c(O)c3c(c(O)c1C2=O)CC(O)(C(=O)CO)CC3OC1CC(NC(=O)/C=C/c2cnc(C)c3c2COC(C)(C)O3)C(O)C(C)O1 (centres unmarked) [DOX-2, (E)-N-(3-hydroxy-2-methyl-6-((3,5,12-trihydroxy-3-(2-hydroxyacetyl)-10-methoxy-6,11-dioxo-1,2,3,4,6,11-hexahydrotetracen-1-yl)oxy)tetrahydro-2H-pyran-4-yl)-3-(2,2,8-trimethyl-4H-[1,3]dioxino[4,5-c]pyridin-5-yl)acrylamide]",Olive Moment,"[2]; MCF-7, 5 µM (IC30)",0.73
same,Tail Area,"[2]; MCF-7, 5 µM (IC30)",1254
same,Tail DNA %,"[2]; MCF-7, 5 µM (IC30)",1.3%
same,Tail Intensity,"[2]; MCF-7, 5 µM (IC30)",10
same,Tail Length,"[2]; MCF-7, 5 µM (IC30)",4.9
same,Tail Moment,"[2]; MCF-7, 5 µM (IC30)",0.14
same,Olive Moment,"[2]; MCF-7, 10 µM (IC60)",1.42
same,Tail Area,"[2]; MCF-7, 10 µM (IC60)",637
same,Tail DNA %,"[2]; MCF-7, 10 µM (IC60)",5.1%
same,Tail Intensity,"[2]; MCF-7, 10 µM (IC60)",21
same,Tail Length,"[2]; MCF-7, 10 µM (IC60)",1.5
same,Tail Moment,"[2]; MCF-7, 10 µM (IC60)",0.21
same,Olive Moment,"[2]; MCF-7, 20 µM (IC70)",1.01
same,Tail Area,"[2]; MCF-7, 20 µM (IC70)",876
same,Tail DNA %,"[2]; MCF-7, 20 µM (IC70)",1.9%
same,Tail Intensity,"[2]; MCF-7, 20 µM (IC70)",20
same,Tail Length,"[2]; MCF-7, 20 µM (IC70)",5.8
same,Tail Moment,"[2]; MCF-7, 20 µM (IC70)",0.25
same,DNA breaks in the Comet assay (in words),"[2]; MCF-7, 72 h",do not cause DNA breaks
same,IC50,[3],0.81 ± 0.07 µM
same,"viability at 3 days, 100 µM",[4],30%
same,Percentage of cells in early and late apoptosis,"[5]; MCF-7, 72 h, IC20–IC60 concentrations",up to 25%
same,Accumulation of necrotic cells (in words),"[5]; MCF-7, concentration corresponding to IC60",no accumulation of necrotic cells
same,IC50,[6],11.6 ± 8.55 µM
same,IC50,[7],40.3 ± 13.5 µM
same,IC50,[8],8.21 ± 2.93 µM
same,IC20,"[9]; Homo sapiens, MCF7",1.5 µM
same,"IC0, MCF-7",[9],0.4 µM
same,"IC4, MCF-7",[9],0.7 µM
same,"IC30, MCF-7",[9],5 μM and 5 µM (IC30) μM
same,"IC60, MCF-7",[9],10 μM and 10 µM (IC60) μM
same,"IC70, MCF-7",[9],20 μM and 20 µM (IC70) μM
same,viability at 72 h,[10],20 to 40%
same,Cells with reduced mitochondrial potential,[11],up to 27%
same,IC50,[12],110 ± 21.9 µM
same,IC50,[13],> 100 µM
same,IC50,[14],0.34 ± 0.06 µM
same,IC50,[15],1.05 ± 0.34 µM
same,IC50,[16],> 100 µM
